Measurements: patent US7176183B2, “Methods for treating and preventing damage to mucosal tissue” (University of Southern California, priority 1999, dated 2007)
“And” between values parts separate entries of the source, which are not always exact repeats. Identical values can stand only once. “Also recorded” adds a separate entry of the source.

Columns and labels:
[1] = tested on: patients with newly diagnosed breast cancer receiving doxorubicin and cyclophosphamide; assay: Phase I/II dose escalation study of AII(1–7) in chemotherapy patients: incidence of stomatitis (oral mucositis); assay type: in vivo; conditions: for Stomatitis (incidents of stomatitis associated with chemotherapy): chemotherapy patients (doxorubicin/cyclophosphamide), subcutaneous treatment, AII(1-7) n = 14, filgrastim n = 5
Description: The Phase I/II study was a prospective, open-label, dose-escalation study comparing the effects of AII(1–7 (SEQ ID NO:4)) in patients with newly diagnosed breast cancer receiving doxorubicin 60 mg/m^2 and cyclophosphamide 600 mg/m^2 for at least 3 cycles of adjuvant chemotherapy following surgical tumor reduction. A filgrastim comparator arm was used to compare safety and response variables and to assess synergy of AII(1–7) with filgrastim (NEUPOGEN®, Amgen, Inc., Thousand Oaks, Calif.).
Patients who satisfied the inclusion/exclusion criteria received a once daily subcutaneous injection of the given AII(1–7) dose level for 7 days followed by a 1 week rest period prior to any chemotherapy (cycle 0) in the interval between tumor reduction and planned chemotherapy. Dose escalation within an individual patient was not permitted.
Following the rest period, a chemotherapy regimen containing doxorubicin 60 mg/m^2 and cyclophosphamide 600 mg/m^2 was initiated. AII(1–7) was administered for at least 10 days, or until the absolute neutrophil count (ANC)>1500/μL for 2 days, beginning two days after chemotherapy. Up to three chemotherapy cycles followed by AII(1–7) administration will be repeated every 21 days or as indicated by patient tolerance. Any patient that fails to achieve an ANC>1500/μL by day 15 (13 days of AII(1–7)) received a filgrastim rescue of 5.0 μg/kg/day until the ANC>1500/μL for 2 days.
During the conduct of the AII (1–7) clinical trial to examine the effect of subcutaneous injection of AII(1–7) on hematological recovery in new breast cancer patients receiving chemotherapy (doxorubicin/cyclophosphamide), adverse events that occurred were collected.
An adverse event (AE) was considered any unfavorable or unintended change in structure, function, signs, or symptoms temporally associated with the use of a medicinal product experienced by a person administered a pharmaceutical product, whether or not a causal relationship with the product has been established. During the conduct of this clinical trial, study personnel asked open-ended questions to obtain information about AEs at every visit. Signs and symptoms were graded by the Investigator using the WHO toxicity criteria. […] If there was stomatitis, it was graded on a four point scale as: […]

[2] = tested on: Female C57B1/6 mice; assay: Gastrointestinal mucositis induced by cyclophosphamide injection into mice, histological scoring; assay type: in vivo; set-up: key to Overall score: 0: No lesion; <10% Crypts distorted; 2: >10% Crypts distorted, no necrotic cells; 3: >10% Crypts distorted, occasional necrotic cell; 4: Same as 3 except more extensive; key to Epithelium score / Crypt Architecture score: 0: Normal; <10% Crypt distortion; 2: 10–50% Crypt distortion; 3: >50% Crypt distortion; conditions: for Epithelium score / Crypt Architecture score / Overall score: AII(1–7) 100 μg/kg s.c., one line per animal
Description: Female C57B1/6 mice were given an intraperitoneal injection of cyclophosphamide at concentrations of 200 or 250 mg/kg. After 2 days, the mice began treatment with either AII(1–7) (100 μg/kg), or phosphate buffered saline, both of which were given subcutaneously. The baseline weight of the mice was determined, and the mice were observed daily for 7–14 days, after which the animals were necropsied. Samples from the intestines were taken at four levels, in that the intestine was cut transversely at four places along the intestinal tract, from which histological preparations were made and evaluated, in order to reduce bias due to site selection. The samples were fixed in formalin for histological evaluation of crypt distortion and architecture, as well as epithelial attenuation. The crypt is a part of the gastrointestinal tract where the mucosal glands reside. Crypt distortion is a measure of the amount of disruption to the tissue that occurs as a result of mucosal damage. The epithelium is the cell/mucosal lining to the gastrointestinal tract. Epithelial attenuation is a measure of the amount of destruction to the epithelial lining.
Histological scoring was performed in a blinded fashion. The scores on the accompanying table were given on the following scale: […]

[3] = Effectiveness test of AII fragments (test not specified)
[4] = cyclophosphamide 200 mg/kg i.p., listed as A(1-7)
[5] = cyclophosphamide 250 mg/kg i.p., listed as A(1-7)

For Asp-Arg-Val-Tyr-Ile-His-Pro [AII(1–7)], the “Reduction of the frequency of stomatitis relative to that observed with filgrastim treatment” value ([1]; chemotherapy patients) was 30%, the “Stomatitis (incidents of stomatitis associated with chemotherapy)” value [1] was 40% and the “Effect on stomatitis (oral mucositis) relative to control” value ([1]; subcutaneous administration, chemotherapy patients) was “reduced; also recorded: significantly decreased”. For the same molecule, the Epithelium score ([2]; cyclophosphamide 200 mg/kg i.p.) was 1 (Mild Attenuation (<10%)), the “Crypt Architecture score” value [2, 4] was 0 and 1 (<10% Crypt distortion) (2×) and the Overall score [2, 4] was 0 and 1 (<10% Crypts distorted) (2×). The “Crypt Architecture score” value [2, 5] was 1 (<10% Crypt distortion) (2×) and 2 (10–50% Crypt distortion), the Epithelium score [2, 5] was 0 and 1 (Mild Attenuation (<10%)) (2×) and the Overall score [2, 5] was 0 and 1 (<10% Crypts distorted) and 2 (>10% Crypts distorted, no necrotic cells). The “Level of gastrointestinal mucositis by all histological scores” value ([2]; versus saline) was “reduced”.

In the case of His-Pro-Phe (HPF) [AII(6–8)], the Effectiveness [3] is reported as “not to be effective”.

For Tyr-Ile-His-Pro-Phe (YIHPF) [AII(4–8)], the Effectiveness [3] was “not to be effective; also recorded: ineffective”.

B1: filgrastim (protein, chains of the INN, looked up)
chain: MTPLGPASSLPQSFLLKCLEQVRKIQGDGAALQEKLCATYKLCHPEELVLLGHSLGIPWAPLSSCPSQALQLAGCLSQLHSGLFLYQGLLQALEGISPELGPTLDTLQLDVADFATTIWQQMEELGMAPALQPTQGAMPAFASAFQRRAGGVLVASHLQSFLEVSYRVLRHLAQP
notes: filgrastim (NEUPOGEN®, Amgen, Inc.), comparator arm
With B1 the “Stomatitis (incidents of stomatitis associated with chemotherapy)” value [1] was 60%.
